Data as given in patent US12275733B2, “Substituted pyrido[3,4-b]indoles for the treatment of cartilage disorders” (Sanofi, priority 2016, dated 2025).

What was measured:
ATDC5 cells = test: Chondrogenesis activity assay in ATDC5 cells (collagen type II induction, immunofluorescence); format: cell-based, mouse; settings: Mus musculus; for EC50: collagen type II induction in ATDC5 cells, concentration reaching 50% of maximum induction; for Emax: maximum percent induction of collagen type II relative to internal reference compound at 10 μM, ATDC5 cells
Procedure, shortened: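 Collagen type II was stained in fixed, permeabilized cells with an Alexa Fluor 488 secondary and measured by high-content fluorescence imaging. ATDC5 cells had 4 days at 37 °C in insulin-supplemented differentiation medium with compound, typically 40 nM–10 μM, 0.1% DMSO. DMSO wells and a 10 μM internal reference compound were used for normalization.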

[1] = test system: primary human chondrocyte pellet cultures; test: Chondrogenesis activity assay in primary human chondrocyte pellet cultures (proteoglycan (aggrecan) induction, Blyscan assay); format: cell-based; settings: for EC50: 336 h, proteoglycan (aggrecan) induction, primary human chondrocyte pellets, 2 weeks culture; for Emax: Homo sapiens, Chondrocyte, maximum percent proteoglycan (aggrecan) induction relative to the internal reference compound at 10 μM
Protocol: B) Chondrogenesis Activity Assay in Primary Human Chondrocyte Pellet Cultures
In this assay human articular chondrocytes are harvested by enzymatic digestion from articular cartilage and passaged several times to dedifferentiate the chondrocytes and to propagate the cells. Cells are cultured as cell pellets in the presence of the compounds of the invention over 2 weeks, and the chondrogenic differentiation is quantified by the production of the chondrogenic marker aggrecan (proteoglycan).
In detail, primary chondrocytes were harvested by enzymatic digestion from cartilage of osteoarthritis patients undergoing knee joint replacement surgery, and cultured in vitro. Cells were passaged one or two times and aliquots were cryopreserved. To initiate chondrogenesis experiments, cell aliquots were thawn, cultured in Chondrocyte Growth Medium (CGM, Lonza, #CC-3216) and passaged twice to further propagate and dedifferentiate cells. Pellet cultures were initiated by seeding 2.5×10E5 cells per well into a 96-well deep well plate in 600 μl chondrocyte differentiation medium consisting of Dulbecco's Modified Eagle Medium (DMEM, Invitrogen, #41966), 1×ITS-solution (Insulin/Transferrin/sodium selenite; 100× solution: Invitrogen, #51500056), 5 μg/mL linoleic acid (Sigma, #L1012-1G), 1× nonessential amino acids (100× solution: Invitrogen, #11140); 10 nM Dexamethasone, 2 ng/ml TGF-β1 (transforming growth factor β1) and 10 μg/ml ascorbic acid. Cells were spun to pellets by centrifugation (10 min, 400×g). Test compounds dissolved in DMSO were added to yield increasing compound concentrations, typically from 40 nM to 10 μM, and a final DMSO concentration of 0.1%, and the cell pellets cultured at 37° C., and 5% CO2 for 2 weeks. On each 96-well plate, control wells containing no test compound but the same concentration of DMSO, i.e. untreated cells, were included and used as reference for the determination of the effect of the test compounds on the cells, and wells containing an internal reference compound at a concentration of 10 μM were included and used as positive control and for standardizing the results. Chondrocyte differentiation medium and the compounds were exchanged twice weekly until harvest of the pellets.
For harvest of the pellets, medium was removed and the pellet was homogenized by enzymatic digestion. 100 μl of protease solution containing 0.4 mg/ml papain, 50 mM sodium phosphate, 4 mM EDTA and 0.48 mg/ml L-cysteine was added to the pellet in each well of a 96-well plate, the plate was sealed with a plate sealer foil (SILVERseal, Greiner Bio-One) and incubated for 4 to 6 hours at 65° C. with agitation.
The concentration of proteoglycan (aggrecan) was determined by quantification of the sulfated glycosaminoglycan side chains of aggrecan using the Blyscan assay (Kit from Biocolor). Aliquots of the papain-digest were transferred to 400 μl of Blyscan dye solution and incubated at room temperature for 45 min with agitation (1200 rpm). The mixture was centrifuged at 3760×g for 45 min, the supernatant was discarded, and the stained pellet was redissolved in 400 μl of Blyscan dissociation reagent by rotation until the precipitate completely resolved. Optical density was measured at 656 nm using a Tecan Saphire2 instrument, and the amount of proteoglycan determined against a standard curve with chondroitin-4-sulfate.
Induction of proteoglycan (aggrecan) was calculated for each compound concentration relative to the control (untreated cells, i.e. no test compound added), and an EC50 value (effective concentration 50 (in μM (micromollliter)), i.e. the compound concentration at which the effect of the compound on proteoglycan (aggrecan) induction reaches 50% of the maximum induction) was calculated using a sigmoidal signal fit procedure. […]

EC50 (ATDC5 cells) [µM]	SMILES	Emax (ATDC5 cells) [%]	EC50 [1] [µM]	Emax [1] [%]
> 3.3	CCn1c2c(-c3cnn(C)c3)cc(Br)cc2c2cc(C)nc(C)c21 [Example 21, 6-Bromo-9-ethyl-1,3-dimethyl-8-(1-methyl-1H-pyrazol-4-yl)-9H-pyrido[3,4-b]indole]	20 to 50	4.3	> 200
0.63	COc1ccc(-c2cc(Cl)cc3c4ccnc(C)c4n(C)c23)cc1 [Example 22, 6-Chloro-8-(4-methoxy-phenyl)-1,9-dimethyl-9H-pyrido[3,4-b]indole]	> 80	4	> 200
0.097	COc1ccc(-c2cc(Cl)c(C)c3c2[nH]c2c(C)nccc23)cc1 [Example 27, 6-Chloro-8-(4-methoxy-phenyl)-1,5-dimethyl-9H-pyrido[3,4-b]indole]	> 80	3.5	> 200
> 1.1	Cc1nccc2c1[nH]c1c(-c3ccc(OCc4ccc5ccccc5n4)cc3)cc(Cl)cc12 [Example 34, 6-Chloro-1-methyl-8-[4-(quinolin-2-ylmethoxy)-phenyl]-9H-pyrido[3,4-b]indole]	20 to 50	3.8	> 200
> 3.3	Cc1nccc2c1[nH]c1c(-c3cccc(Oc4ncc(Br)cn4)c3)cc(Cl)cc12 [Example 37, 8-[3-(5-Bromo-pyrimidin-2-yloxy)-phenyl]-6-chloro-1-methyl-9H-pyrido[3,4-b]indole]	20 to 50	4.3	100 to 200
0.13	Cc1nccc2c1[nH]c1c(-c3ccc(OCCn4cccn4)cc3)cc(Cl)c(C)c12 [Example 45]	> 80	0.22	40 to 100
1.4	Clc1cc(-c2ccc(Cl)nc2Cl)c2c(c1)c1ccncc1n2CC1CC1 [Example 46, 6-Chloro-9-cyclopropylmethyl-8-(2,6-dichloro-pyridin-3-yl)-pyrido[3,4-b]indole]	> 80	1	100 to 200
> 1.1	Cc1nccc2c1[nH]c1c(-c3cnccc3Cl)cc(Cl)cc12 [Example 97, 6-Chloro-8-(4-chloro-pyridin-3-yl)-1-methyl-9H-pyrido[3,4-b]indole]	< 20	5.1	> 200
0.39	CCn1c2c(-c3cnn(Cc4cccnc4)c3)cc(Cl)cc2c2ccnc(C)c21 [Example 116, 6-Chloro-9-ethyl-1-methyl-8-(1-pyridin-3-ylmethyl-1H-pyrazol-4-yl)-9H-pyrido[3,4-b]indole]	> 80	1.3	100 to 200
> 3.3	COc1nc(Cl)ccc1-c1cc(Cl)cc2c1[nH]c1c(C)nccc12 [Example 122, 6-Chloro-8-(6-chloro-2-methoxy-pyridin-3-yl)-1-methyl-9H-pyrido[3,4-b]indole]	20 to 50	3.6	100 to 200
0.33	COc1ccc(-c2cc(Cl)cc3c2[nH]c2c(C)nccc23)cc1 [Example 149, 6-Chloro-8-(4-methoxy-phenyl)-1-methyl-9H-pyrido[3,4-b]indole]	> 80	1.1	100 to 200
3	Cc1nccc2c1[nH]c1c(-c3ccc4c(c3)CCCO4)cc(Cl)cc12 [Example 184, 6-Chloro-8-chroman-6-yl-1-methyl-9H-pyrido[3,4-b]indole]	50 to 80	1.9	40 to 100
> 10	Cc1nccc2c1[nH]c1c(-c3ccc4c(c3)OC(C)(C)C4)cc(Cl)cc12 [Example 195, 6-Chloro-8-(2,2-dimethyl-2,3-dihydro-benzofuran-6-yl)-1-methyl-9H-pyrido[3,4-b]indole]	< 20	14	< 40

The next lines start with the compound.

SMILES	EC50 (ATDC5 cells) [µM]	Emax (ATDC5 cells) [%]	EC50 [1] [µM]	Emax [1] [%]
Cc1nccc2c1[nH]c1c(-c3ccc(CNC4CCCC4)cc3)cc(Cl)cc12 [Example 29, [4-(6-Chloro-1-methyl-9H-pyrido[3,4-b]indol-8-yl)-benzyl]-cyclopentyl-amine]	> 1.1	< 20	1.5	100 to 200
COc1ccc(-c2cc(C#N)cc3c2[nH]c2c(C)nccc23)cc1 [Example 33, 8-(4-Methoxy-phenyl)-1-methyl-9H-pyrido[3,4-b]indole-6-carbonitrile]	0.12	> 80	0.83	100 to 200
Cc1nccc2c1[nH]c1c(-c3ccc(OCc4nccn4C)cc3)cc(Cl)cc12 [Example 39, 6-Chloro-1-methyl-8-[4-(1-methyl-1H-imidazol-2-ylmethoxy)-phenyl]-9H-pyrido[3,4-b]indole]	0.17	> 80	3.7	> 200
CCn1c2cnccc2c2cc(Cl)cc(-c3ccc(Cl)nc3Cl)c21 [Example 55, 6-Chloro-8-(2,6-dichloro-pyridin-3-yl)-9-ethyl-9H-pyrido[3,4-b]indole]	0.65	> 80	0.95	100 to 200
COC(=O)c1cc2c([nH]c3c(-c4ccc(Cl)nc4Cl)cc(Cl)cc32)c(C)n1 [Example 117, 6-Chloro-8-(2,6-dichloro-pyridin-3-yl)-1-methyl-9H-pyrido[3,4-b]indole-3-carboxylic acid methyl ester]	> 10	< 20	27	< 40
Cc1nccc2c1[nH]c1c(-c3ccc(N4CCN(C)CC4)nc3)cc(Cl)cc12 [Example 118, 6-Chloro-1-methyl-8-[6-(4-methyl-piperazin-1-yl)-pyridin-3-yl]-9H-pyrido[3,4-b]indole]	> 1.1	20 to 50	1.3	100 to 200
Cc1nccc2c1[nH]c1c(-c3cccnc3OCc3ccccc3)cc(Cl)cc12 [Example 119, 8-(2-Benzyloxy-pyridin-3-yl)-6-chloro-1-methyl-9H-pyrido[3,4-b]indole]	> 3.3	< 20	21	40 to 100
FC(F)(F)Cn1c2cnccc2c2cc(Cl)cc(-c3cnn(-c4c(Cl)cccc4Cl)c3)c21 [Example 167, 6-Chloro-8-[1-(2,6-dichloro-phenyl)-1H-pyrazol-4-yl]-9-(2,2,2-trifluoro-ethyl)-9H-pyrido[3,4-b]indole]	> 10	20 to 50	13	< 40
Cc1ncc(-c2cc(Cl)cc3c4ccncc4n(CC(F)(F)F)c23)s1 [Example 171, 6-Chloro-8-(2-methyl-thiazol-5-yl)-9-(2,2,2-trifluoro-ethyl)-9H-pyrido[3,4-b]indole]	1.9	> 80	4	> 200
Cc1nccc2c1[nH]c1c(-c3ccc(OCCn4ccnc4)cc3)cc(Cl)cc12 [Example 194, 6-Chloro-8-[4-(2-imidazol-1-yl-ethoxy)-phenyl]-1-methyl-9H-pyrido[3,4-b]indole]	0.14	> 80	0.83	100 to 200
Cc1nccc2c1[nH]c1c(-c3c[nH]nc3Cc3ccccc3)cc(Cl)cc12 [Example 199, 8-(3-Benzyl-1H-pyrazol-4-yl)-6-chloro-1-methyl-9H-pyrido[3,4-b]indole]	> 10	< 20	22	< 40
